Several values for one entry are separate records, joined by “and”; a condition that tells them apart may be missing. Equal entries are not always repeated. Entries after “also recorded” stand apart in the source; their conditions may differ. Where two headings read alike, the source gives them in different places. No end group written: not given here.
Assays:
[1] = In vitro protein cleavage assay and LC-MS/MS; format: biochemical, Arabidopsis thaliana
Experimental: Recombinant HIS-SCOOP12 proteins were expressed in E. coli BL21 strain with an isopropyl β-D-1-thiogalactopyranoside (IPTG)-inducible system and purified with Ni-NTA agarose (QIAGEN, #166048536) in buffer containing 50 mM Tris-HCl pH 7.5 and 300 mM NaCl. For in vitro protein cleavage assay, 5 μg of purified HIS-SCOOP12 proteins were incubated with 10 μL protein extracts isolated from 10-day-old Arabidopsis WT seedlings or protein extraction buffer (50 mM HEPES, pH 7.4, 10 mM EDTA, and 1× protease inhibitor cocktail, Sigma) following a published protocol[36] for 5 h at room temperature with rotation. […] The processed SCOOP12 bands were cut from SDS-PAGE for LC-MS/MS analysis.
The processed SCOOP12 bands were in-gel digested following a published protocol, except that digestion was conducted with Lys-C (Promega, Madison, WI, USA). The digested peptides were desalted using micro ZipTip mini-reverse phase (Millipore). In brief, after wetting (with 50% acetonitrile) and equilibrating a ZipTip (with 0.1% formic acid), the peptides were bound to C-18 material. A subsequent washing step with 0.1% formic acid was followed by a final elution with 60% acetonitrile and 0.1% formic acid. The samples were lyophilized to dryness using a labconco speedvac (Centrivap, Labconco Inc., USA). The resulting peptides were resuspended in 0.1% formic acid for mass spectrometric analysis. The mass spectrometry data acquisition was performed on an EASY-nLC 1200 ultraperformance liquid chromatography system (Thermo Scientific Inc., San Jose, CA) connected to an Orbitrap Q-Exactive HF instrument equipped with a nano-electrospray source (Thermo Scientific Inc., San Jose, CA)[67]. The peptide samples were loaded to a C18 trapping column (75 μm i.d. × 2 cm, Acclaim PepMap® 100 particles with 3 μm size and 100 Å pores) and then eluted using a C18 analytical column (75 μm i.d. × 25 cm, 2 μm particles with 100 Å pore size). […] All MS/MS samples were analyzed using Mascot Daemon (Matrix Science, London, UK; version 2.4.0). […]

[2] = test system: WRKY30, WRKY33 and CYP81F2 expression, WT seedlings; assay: RT-qPCR of defense genes, WT; format: in vivo, Arabidopsis thaliana
[3] = test system: WRKY30, WRKY33 and CYP81F2 expression, mik2 seedlings; assay: RT-qPCR of defense genes, mik2 mutants; format: in vivo, Arabidopsis thaliana
[4] = test system: Arabidopsis WT (Col-0) seedlings; format: in vivo, Arabidopsis thaliana; settings: in vivo
[5] = test system: MYB51 promoter, pMYB51::GUS seedling roots; assay: Histochemical GUS staining, pMYB51::GUS; format: in vivo, Arabidopsis thaliana; settings: pMYB51::GUS seedlings, 1 µM, 3 h
Text: Stained samples were fixed with a 3:1 ethanol:acetic acid solution overnight and cleared by lactic acid and photographed with the Olympus SZX10 stereoscopic microscope equipped with DP27 camera.

[6] = test system: mik2-1 and mik2-2 mutant seedlings; format: in vivo, Arabidopsis thaliana; settings: for root growth inhibition in mik2: mik2-1 and mik2-2, 10-day-old seedlings, 1 µM peptide; for Root length (Fig. 3e): individual values, one per line
[7] = test system: Arabidopsis WT seedling roots; assay: Microscopy of root browning and root meristems, WT; format: in vivo, Arabidopsis thaliana
[8] = test system: Arabidopsis WT seedlings; assay: ROS assay (luminol), WT seedlings; format: in vivo, Arabidopsis thaliana; settings: WT seedlings
Experimental: ROS burst was determined by a luminol-based assay. […] Then, ddH2O was replaced by 200 µL of reaction solution containing 50 µM of luminol, and 10 µg/mL of horseradish peroxidase (Sigma-Aldrich) supplemented with or without 100 nM or 1 μM peptide. Luminescence was measured immediately after adding the solution with a luminometer (Glomax 20/20n, Promega) with a one-second interval for 15 min. The total values of ROS production were indicated as means of the relative light units (RLUs).

[9] = test system: p35S::Aequorin seedlings; format: in vivo, Arabidopsis thaliana; settings: Ca^2+ and ROS bursts, 100 nM
[10] = test system: MPK3, MPK4 and MPK6 phosphorylation, WT seedlings; assay: MAPK assay (α-pERK1/2 immunoblot), WT; format: in vivo, Arabidopsis thaliana; settings: Supplementary Fig. 3i
Experimental: Ten-day-old seedlings grown vertically on ½MS plates were transferred to ddH2O overnight for recovery. Then, ddH2O was replaced by 100 nM peptides for the indicated time.

[11] = target: T1, MIK2^ECD, extracellular LRR domain of MALE DISCOVERER 1-INTERACTING RECEPTOR-LIKE KINASE 2 (Arabidopsis thaliana, UniProt Q8VZG8 44-707); assay: SPR; settings: both partners purified
T1 construct: also called MIK2^ECD-6×HIS
T1 sequence (looked up): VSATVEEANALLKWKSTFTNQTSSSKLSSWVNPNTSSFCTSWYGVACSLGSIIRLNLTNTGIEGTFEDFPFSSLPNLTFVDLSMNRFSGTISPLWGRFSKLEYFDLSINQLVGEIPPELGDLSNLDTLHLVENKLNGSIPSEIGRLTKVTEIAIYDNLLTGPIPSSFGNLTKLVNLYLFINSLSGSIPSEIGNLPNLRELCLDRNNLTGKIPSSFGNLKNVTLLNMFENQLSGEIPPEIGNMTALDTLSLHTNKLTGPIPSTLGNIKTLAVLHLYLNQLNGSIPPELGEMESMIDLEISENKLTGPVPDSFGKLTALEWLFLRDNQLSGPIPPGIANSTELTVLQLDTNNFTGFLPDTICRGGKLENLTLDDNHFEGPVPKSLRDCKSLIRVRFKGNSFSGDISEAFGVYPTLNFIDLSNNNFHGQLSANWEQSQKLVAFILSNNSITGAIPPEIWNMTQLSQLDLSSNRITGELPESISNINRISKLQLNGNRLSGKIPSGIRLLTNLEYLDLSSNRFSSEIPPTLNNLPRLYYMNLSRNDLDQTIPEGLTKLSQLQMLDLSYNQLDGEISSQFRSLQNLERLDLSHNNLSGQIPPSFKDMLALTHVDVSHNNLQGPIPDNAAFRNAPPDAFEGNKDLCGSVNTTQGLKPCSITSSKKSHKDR

[12] = target: T1, MIK2^ECD, extracellular LRR domain of …; assay: ITC; MicroCal ITC200, 25 °C, 200 mM HEPES pH 7.0, 100 mM NaCl; 600 µM peptide injected into 30 µM MIK2^ECD in the cell; settings: both partners purified

In the case of “HIS-SCOOP12: recombinant HIS-SCOOP12 proteins expressed in E. coli (LMGSGASGPVRSSQSSQAGGRFNDADPIAIDYGKY; also: His tag (not in given chain); UniProt B3H7I1 44-78, looked up)”, the “proteolytic processing by Arabidopsis protein extracts” value ([1]; 5 μg HIS-SCOOP12, seedling extract, 5 h, room temperature, pH 7.4) is reported as “proteolytically processed upon incubation with Arabidopsis protein extracts”, the cleavage site ([1]; Nano-LC-MS/MS) is reported as “cleaved after arginine 43 (R^43)” and the “identified SCOOP12 fragment” value ([1]; Nano-LC-MS/MS, in-gel Lys-C digestion) is reported as “from leucine 44 (L^44) to lysine 78 (Y^78)”.

For MGSGASGPVRSSQSSQAGGR [SCOOP12], the “WRKY30, WRKY33 and CYP81F2 expression” value ([2]; 1 µM, 1 h, RT-qPCR) was “upregulation”, the “CYP81F2 expression (Fig. 3i)” value ([2]; repeat 1) was 29.17 and the “CYP81F2 expression (Fig. 3i)” value ([2]; repeat 2) was 38.18. For the same molecule, the “CYP81F2 expression (Fig. 3i)” value ([2]; repeat 3) was 74.97, the “CYP81F2 expression (Fig. 3i)” value ([2]; repeat 4) was 101.98 and the “CYP81F2 expression (Fig. 3i)” value ([3]; mik2-1, repeat 1) was 5.42. For the same molecule, the “CYP81F2 expression (Fig. 3i)” value ([3]; mik2-1, repeat 2) was 5.95, the “CYP81F2 expression (Fig. 3i)” value ([3]; mik2-1, repeat 3) was 2.79 and the “CYP81F2 expression (Fig. 3i)” value ([3]; mik2-1, repeat 4) was 3.39. For the same molecule, the “CYP81F2 expression (Fig. 3i)” value ([3]; mik2-2, repeat 1) was 6.08, the “CYP81F2 expression (Fig. 3i)” value ([3]; mik2-2, repeat 2) was 9.84 and the “CYP81F2 expression (Fig. 3i)” value ([3]; mik2-2, repeat 3) was 9.95. For the same molecule, the “CYP81F2 expression (Fig. 3i)” value ([3]; mik2-2, repeat 4) was 12.98 and the “WRKY30, WRKY33 and CYP81F2 expression” value ([3]; mik2 mutants, 1 µM, 1 h, RT-qPCR) was “abolished in mik2 mutants”.

With “PPRGPGGSGSGHGGGR [AtSCOOPL, SCOOPL from Acidovorax temperans]” the “root growth inhibition” value [4] was “inactivity” and the “MYB51 promoter activity in roots” value [5] was “inactivity”.

With “PPRGSGGPGGSGHGGGG [AaSCOOPL, SCOOPL from Acidovorax avenae]” the “root growth inhibition” value [4] was “inactivity” and the “MYB51 promoter activity in roots” value [5] was “inactivity”.

With “PPRGSGGSGSGHGGGR [VeSCOOPL, SCOOPL from Verminephrobacter eiseniae]” the “root growth inhibition” value [4] was “induced growth inhibition”, the “root growth inhibition in mik2” value [6] was “blocked in mik2-1” and the “MYB51 promoter activity in roots” value [5] was “MYB51 promoter activation in roots”.

In the case of “PPRGSGGSSSGHGGGR [CuSCOOPL, SCOOPL from a strain of Curvibacter sp]”, the “root growth inhibition” value [4] is reported as “induced growth inhibition”, the “root growth inhibition in mik2” value [6] is reported as “blocked in mik2-1” and the “MYB51 promoter activity in roots” value [5] is reported as “MYB51 promoter activation in roots”.

For “RSMAPPIFVPPSTSHKGQGP [SCOOP14, synthesized SCOOP peptide corresponding to the SxS motif]”, the “root growth inhibition” value [4] was “inhibited root growth to various degrees; also recorded: potent in inhibiting root growth”, the “Root length (Fig. 3e)” value ([6]; mik2-1) was 24.089 and 21.232 and 24.336 and 25.505 and 25.175 and 27.845 and 26.169 and 23.827 and 21.884 and 25.844 and the “Root length (Fig. 3e)” value ([6]; mik2-2) was 25.38 and 24.419 and 26.016 and 27.911 and 26.615 and 21.291 and 24.947 and 21.905 and 24.43 and 24.226. For the same molecule, the “root browning” value ([7]; WT seedlings, prolonged treatment) was “led to brown roots”, the “root meristem distortion” value ([7]; WT, 5-day-old seedlings, 1 µM, 48 h, PI staining) was “distorted root meristems” and the “ROS production, total luminescence (Fig. 2h)” value (“ROS production … (Fig. 2h)” for short) ([8]; repeat 1) was 719851. The “ROS production … (Fig. 2h)” value ([8]; repeat 2) was 1351126, the “ROS production … (Fig. 2h)” value ([8]; repeat 3) was 841586 and the “ROS production, SCOOP13 and 14 relative to other SCOOPs, and Ca^2+ bursts” value [9] was “relatively weak activities for Ca^2+ and ROS bursts”. The “MAPK activation in shoots and roots” value [10] was “triggered the MAPK activation in both shoots and roots” and the “MYB51 promoter activity in roots” value [5] was “induced the promoter activities of MYB51”.

B1: SCOOP12^SS/AA peptide (peptide)
chain: PVRSAQASQAGGR
modifications: Synthetic peptide. Exact limits are in Supplementary Data 4 (not shown); same conventional 13-mer as m1, with both SxS-motif serines changed to alanine.
B1 showed a Kd [11] of 3480 µM.

B2: SCOOP12 peptide (SERINE-RICH ENDOGENOUS PEPTIDE 12) (peptide)
chain: PVRSSQSSQAGGR
modifications: Synthetic peptide, unlabelled in ITC/SPR; an N-terminal TAMRA version was used for in vivo binding. Exact limits are in Supplementary Data 4 (not shown). Limits taken as the commonly used 13-mer …
For B2, the Kd [11] was 1.78 µM, the Kd [12] was 3.18 µM and the “stoichiometry N” value [12] was about 1.
